Reference: US20090130070A1, “METHOD OF TREATMENT” (The University of Queensland, priority 2004, published 2009)
Entries after “also recorded” stand apart in the source; their conditions may differ.

Columns and labels:
[1] = Penetration of fluorescently labeled fetuin into lamb burn wounds from different carriers; assay type: in vivo, Merino lambs; conditions: 2 mg/mL, lamb scald wounds, 24 hours
Protocol: Lyophilized bovine Fetuin (Sigma) was dissolved in purified water at a concentration of 10 mg/mL. Aliquots of 200 μL were labeled using a FluoReporter Oregon Green® 488 Protein Labeling Kit (Molecular Probes). Assuming 85% recovery from the kit, the solution was dried down using a vacuum concentrator (Labconco) and added at 2 mg/mL to one of 3 different carriers: paraffin cream, aqueous cream (Orion, Australia) or dissolved in purified water to make an aqueous solution.
Two Merino lambs were scalded under general anesthesia as described previously. Eight wounds were created on each animal; 2× control wounds with nothing added, 2× aqueous solution treated wounds, 2× aqueous cream treated wounds and 2× paraffin cream treated wounds. The wounds were dressed with Melolin and Sleek and the lambs awoken and returned to the pens. 24 hours later the lambs were euthanized and the burn wounds (as well as an unburned area) were collected and fixed in formalin for paraffin embedding. Sections of (4 μm) were taken and examined under a Nikon EP epifluorescent microscope to determine the extent of fetuin penetration in each of the carriers. Brightfield transmittance and Fluorescent green images were captured with a Spot RT slider cooled CCD camera and overlayed with using Photoshop software.

TGF-β2 = biological target: T1, TGF-β2 (Homo sapiens, UniProt P61812); conditions: cited from earlier work
T1 sequence (P61812 303-414 limits assumed): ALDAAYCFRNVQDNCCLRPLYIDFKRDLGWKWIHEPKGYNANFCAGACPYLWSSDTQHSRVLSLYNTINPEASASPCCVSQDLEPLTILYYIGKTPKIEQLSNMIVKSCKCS

BMP-4 = biological target: T2, BMP-4 (Homo sapiens, UniProt P12644); conditions: cited from earlier work
T2 sequence (P12644 293-408): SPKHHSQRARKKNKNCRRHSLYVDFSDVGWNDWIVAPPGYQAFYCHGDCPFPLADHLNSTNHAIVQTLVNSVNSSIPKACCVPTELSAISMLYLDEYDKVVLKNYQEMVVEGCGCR

TGF-β1 = TGF-β1 (Homo sapiens, UniProt P01137); conditions: cited from earlier work
Sequence of TGF-β1 (P01137 279-390 limits assumed, species assumed): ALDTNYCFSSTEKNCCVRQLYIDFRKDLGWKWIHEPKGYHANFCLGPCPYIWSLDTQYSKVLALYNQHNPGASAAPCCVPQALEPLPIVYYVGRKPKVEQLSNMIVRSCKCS

[2] = tested on: Human epidermal keratinocytes (HaCaT cells); experiment: "scrape" in vitro wound healing model (wound closure of a scraped confluent monolayer); assay type: cell-based; conditions: for wound width, day 1: day 1 (24 hours); for wound width, day 2: day 2 (48 hours); for ability to enhance keratinocyte wound closure compared with thyroglobulin and TGF-β1 inhibitor: at all concentrations of agents
Protocol: The “scrape” in vitro wound healing model has been previously presented in the literature (Li, F. et al., 2000, Exp Cell Res., 258(2): 245-253; Firth J. D. et al., 2004, J. Invest. Dermatol., 122(1): 222-231). In this model a scrape across a confluent monolayer of cells is used to simulate a wound and the effect of agents added to serum free media is tested on the rate of closure of the gap.
Human epidermal keratinocytes (HaCaT cells) were plated at a density of 1×10^5 cells/well into Nunc 6 well plates in Dulbecco's Modified Eagle Medium (DMEM) containing 10% fetal bovine serum (FBS) benzyl penicillin (100 IU/ml), streptomycin […] confluence (2 days) monolayers were “wounded” with a 1 ml pipette tip (0.5 mm width) by scraping the tip across the centre of the well. The wells were then washed 5 times with DMEM. One ml of either DMEM with 10% FBS, DMEM or DMEM with: 3, 6, 12 or 24 mgs/ml bovine fetuin A (Sigma), 6.25, 12.5, 25 or 50 μg/ml peptide TGF peptide antagonist (Corresponding to residues 41-65 of TGFβ-1-3:—Huang S. S. et al., 1997, Journal of Biological Chemistry, 272(43):27155-27159) and 2.1, 4.2, 8.4 and 16.8 mg/ml bovine thyroglobulin was added to each well (2 replicates per plate, 4 plates). These concentrations were calculated to have equivalent antagonistic effect on the binding of TGFβ-1 to its receptor for each of the compounds. All DMEM solutions used contained benzyl penicillin (100 IU/ml), streptomycin ([…]) and fungizone (250 mg/ml). A mark was placed on the base of each well at right angles to the “wound” and the wound was photographed at the intersection of the mark and wound with a Nikon EOS 300 digital camera fitted to a JenaMed (Ziess Jena) inverted microscope (50×). Images were taken at the same positions 24 and 48 hours after addition of the treatment media. Digital images were analysed with Image Pro (Media Cybernetics) image analysis software and an image of a Nikon stage micrometer was used for calibration of length measurements. Results were summarized as the wound width after 24 and 48 hours.

BMP-6 = biological target: T3, BMP-6 (Homo sapiens, UniProt P22004); conditions: cited from earlier work
T3 sequence (P22004 375-513): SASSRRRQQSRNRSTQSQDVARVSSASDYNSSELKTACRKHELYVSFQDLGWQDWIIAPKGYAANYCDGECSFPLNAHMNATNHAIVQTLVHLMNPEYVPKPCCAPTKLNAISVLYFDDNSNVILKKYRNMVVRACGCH

BMP-2 = biological target: T4, BMP-2 (Homo sapiens, UniProt P12643); conditions: cited from earlier work
T4 sequence (P12643 283-396): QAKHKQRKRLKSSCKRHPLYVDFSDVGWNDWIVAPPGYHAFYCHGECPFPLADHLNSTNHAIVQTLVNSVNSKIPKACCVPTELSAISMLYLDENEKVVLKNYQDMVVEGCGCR

TGF-β3 = biological target: T5, TGF-β3 (Homo sapiens, UniProt P10600); conditions: cited from earlier work
T5 sequence (P10600 301-412 limits assumed): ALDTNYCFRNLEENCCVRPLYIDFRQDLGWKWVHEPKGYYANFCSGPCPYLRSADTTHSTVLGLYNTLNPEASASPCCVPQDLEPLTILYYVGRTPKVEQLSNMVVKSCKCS

[3] = 3 mgs/ml bovine fetuin A in DMEM
[4] = 6 mgs/ml bovine fetuin A in DMEM
[5] = 12 mgs/ml bovine fetuin A in DMEM
[6] = 24 mgs/ml bovine fetuin A in DMEM

Fetuin: bovine fetuin A (Sigma); glycoprotein also called alpha2-Heremans-Schmid-glycoprotein (AHSG)
penetration of labeled fetuin into burn tissue ([1]; aqueous solution): good penetration; also recorded: on the epidermis and at the end of hair follicles
penetration of labeled fetuin into burn tissue ([1]; oil based paraffin cream): little or no penetration
penetration of labeled fetuin into burn tissue ([1]; water based (aqueous) cream): good penetration; also recorded: penetration to the base of the hair follicles
binding to TGF-β2 (TGF-β2): strongly
binding to BMP-4 (BMP-4): strongly
binding to TGF-β1 (TGF-β1): strongly
wound width, day 0 [2, 3]: 0.7602
wound width, day 1 [2, 3]: 0.4265
wound width, day 2 [2, 3]: 0.02947
wound width, day 0 [2, 4]: 0.7332
wound width, day 1 [2, 4]: 0.3938
wound width, day 2 [2, 4]: 0.01441
wound width, day 0 [2, 5]: 0.7231
wound width, day 1 [2, 5]: 0.3699
wound width, day 2 [2, 5]: 0.000259
wound width, day 0 [2, 6]: 0.6724
wound width, day 1 [2, 6]: 0.3806
wound width, day 2 [2, 6]: 0.04348
ability to enhance keratinocyte wound closure compared with thyroglobulin and TGF-β1 inhibitor ([2]; listed as fetuin): markedly more effective than either thyroglobulin or a TGF-β1 inhibitor
ability to enhance keratinocyte wound closure compared with thyroglobulin and TGF-β1 inhibitor ([2]; listed as fetuin A): significantly greater ability than thyroglobulin and TGFβ1 to enhance keratinocyte wound closure
binding to BMP-6 (BMP-6): strongly
binding to BMP-2 (BMP-2): strongly
binding to TGF-β3 (TGF-β3): weakly
